According to patent US7235678B2 (priority 2004, dated 2007):
≈ marks a conversion by molar mass, not a printed value.

What was measured:
[1] = system: Yarrowia lipolytica; test: Antibiotic inhibition assay using disc method, Y. lipolytica; type: cell-based; details: for MIC: 28° C.
[2] = system: Candida albicans (5 isolates); test: Antibiotic inhibition assay using disc method, C. albicans isolates; type: cell-based
[3] = system: Candida albicans (5 isolates), Benjaminiella poitrasii and Yarrowia lipolytica; test: Antibiotic inhibition assay using disc method, all fungi tested together; type: cell-based; details: for antifungal activity (in words): Candida albicans (five isolates), Benjaminiella poitrasii and Yarrowia lipolytica, compared with cycloheximide; for MIC: all five C. albicans isolates, B. poitrassi and Y. lipolytica
[4] = system: Benjaminiella poitrasii; test: microbe, parasite or virus in culture; type: cell-based; details: B. poitrassi, disc method; for MIC: 28° C.
[5] = system: clinical isolate of C. albicans; details: microtitre dilution broth assay; cited from earlier work
[6] = C. albicans, Isolate no. 1, disc method
[7] = C. albicans, Isolate no. 1, disc method, 28° C., 24 hours
[8] = C. albicans, Isolate no. 2, disc method
[9] = C. albicans, Isolate no. 2, disc method, 28° C., 24 hours
[10] = C. albicans, Isolate no. 3, disc method
[11] = C. albicans, Isolate no. 3, disc method, 28° C., 24 hours
[12] = C. albicans, Isolate no. 4, disc method
[13] = C. albicans, Isolate no. 4, disc method, 28° C., 24 hours
[14] = C. albicans, Isolate no. 5, disc method
[15] = C. albicans, Isolate no. 5, disc method, 28° C., 24 hours

**Q.** Which “Inhibition Zone” value [1] does the source give for `CC(CCC(=O)NCCNCCNC(=O)CCC(C)C1CCC2C3C(O)CC4CC(O)CCC4(C)C3CC(O)C12C)C1CCC2C3C(O)CC4CC(O)CCC4(C)C3CC(O)C12C` (stereo not drawn) [Compound (1), N^1,N^3-Diethylenetriaminebis [cholic acid amide]] here?
**A.** 0.9 cm

**Q.** And the MIC ([1]; 24 hours)?
**A.** 0.01132 µM (≈ 0.01 µg/mL)

**Q.** And the “Inhibition Zone” value [2, 6]?
**A.** 0.8 cm

**Q.** And the MIC [2, 7]?
**A.** 0.01132 µM (≈ 0.01 µg/mL)

**Q.** What about the “Inhibition Zone” value [2, 8] of the same compound?
**A.** 0.8 cm

**Q.** What about the MIC [2, 9] of the same compound?
**A.** 0.01132 µM (≈ 0.01 µg/mL)

**Q.** And the “Inhibition Zone” value [2, 10]?
**A.** 0.8 cm

**Q.** And the MIC [2, 11]?
**A.** 0.01132 µM (≈ 0.01 µg/mL)

**Q.** And the “Inhibition Zone” value [2, 12]?
**A.** 0.8 cm

**Q.** And the MIC [2, 13]?
**A.** 0.01132 µM (≈ 0.01 µg/mL)

**Q.** What about the “Inhibition Zone” value [2, 14] of the same compound?
**A.** 0.8 cm

**Q.** And the MIC [2, 15]?
**A.** 0.01132 µM (≈ 0.01 µg/mL)

**Q.** And the “antifungal activity (in words)” value [3]?
**A.** very good antifungal activity

**Q.** And the MIC [3]?
**A.** 0.01132 µM (≈ 0.01 µg/mL)

**Q.** And the “minimum inhibitory concentration (MIC)” value ([3]; summary in description, fungi not specified)?
**A.** about 11.30 nM

**Q.** And the “Inhibition Zone” value [4]?
**A.** 0.7 cm

**Q.** What about the MIC ([4]; 24 hours) of the same compound?
**A.** 0.01132 µM (≈ 0.01 µg/mL)

**Q.** What does the source list for `C[C@@H]1C[C@@H]([C@H](O)CC2CC(=O)NC(=O)C2)C(=O)[C@@H](C)C1` [Cycloheximide, reference compound]?
**A.** MIC [5]: greater than 900 nM; Inhibition Zone [1]: 0.9 cm; MIC ([1]; 24 hours): 0.1068 µM (≈ 0.03 µg/mL); MIC ([1]; Yarrowia lipolytica, 24 h): 0.106 µM (≈ 0.0298 µg/mL); Inhibition Zone [2, 6]: 1.0 cm; Inhibition Zone [2, 8]: 0.9 cm; Inhibition Zone [2, 10]: 0.9 cm; Inhibition Zone [2, 12]: 1.0 cm; Inhibition Zone [2, 14]: 0.8 cm; MIC ([2]; Candida albicans, 24 h, C. albicans, Isolate no. 1, disc method, 28° C.): 0.356 µM (≈ 0.1 µg/mL); MIC ([2]; Candida albicans, 24 h, C. albicans, Isolate no. 2, disc method, 28° C.): 0.539 µM (≈ 0.152 µg/mL); MIC ([2]; Candida albicans, 24 h, C. albicans, Isolate no. 3, disc method, 28° C.): 0.267 µM (≈ 0.0751 µg/mL); MIC ([2]; Candida albicans, 24 h, C. albicans, Isolate no. 4, disc method, 28° C.): 0.534 µM (≈ 0.15 µg/mL); MIC ([2]; Candida albicans, 24 h, C. albicans, Isolate no. 5, disc method, 28° C.): 0.534 µM (≈ 0.15 µg/mL); MIC ([2]; Candida albicans, isolates of C. albicans, range over isolates): 0.25 to 0.5 µM (≈ 0.0703 to 0.141 µg/mL); Inhibition Zone [4]: 1.45 cm; MIC ([4]; 24 hours): 0.0712 µM (≈ 0.02 µg/mL); MIC ([4]; Benjaminiella poitrasii, 24 h): 0.071 µM (≈ 0.02 µg/mL)

**Q.** Which “Inhibition Zone” value [1] does the source give for “N^1,N^3-Diethylenetriaminebis [Compound (2), N^1,N^3-Diethylenetriaminebis [deoxycholic acid amide]]” here?
**A.** 0.8 cm

**Q.** And the MIC ([1]; 24 hours)?
**A.** 0.0235 µM

**Q.** What about the “Inhibition Zone” value [2, 6] of the same compound?
**A.** 0.9 cm

**Q.** What about the MIC [2, 7] of the same compound?
**A.** 0.01175 µM

**Q.** What about the “Inhibition Zone” value [2, 8] of the same compound?
**A.** 0.7 cm

**Q.** What about the MIC [2, 9] of the same compound?
**A.** 0.01175 µM

**Q.** What about the “Inhibition Zone” value [2, 10] of the same compound?
**A.** 1.0 cm

**Q.** What about the MIC [2, 11] of the same compound?
**A.** 0.01175 µM

**Q.** What about the “Inhibition Zone” value [2, 12] of the same compound?
**A.** 0.8 cm

**Q.** What about the MIC [2, 13] of the same compound?
**A.** 0.01175 µM

**Q.** And the “Inhibition Zone” value [2, 14]?
**A.** 0.9 cm

**Q.** What about the MIC [2, 15] of the same compound?
**A.** 0.01763 µM

**Q.** And the “antifungal activity (in words)” value [3]?
**A.** moderate antifungal activity

**Q.** And the MIC [3]?
**A.** 0.01 to 0.025 µM

**Q.** What about the “Inhibition Zone” value [4] of the same compound?
**A.** 0.6 cm

**Q.** And the MIC ([4]; 24 hours)?
**A.** 0.01763 µM
